This note sets out measurements from patent US20060079566A1, “PDK-1/Akt signaling inhibitors” (priority 2003, published 2006).

Structures are written as SMILES. Read-outs that look alike come from different tables or passages of the source.

Assay [1] deals with T1, recombinant PDK-1 (Homo sapiens, UniProt O15530).
T1 construct: purchased Upstate (Lake Placid, N.Y.)
T1 sequence (O15530 1-556): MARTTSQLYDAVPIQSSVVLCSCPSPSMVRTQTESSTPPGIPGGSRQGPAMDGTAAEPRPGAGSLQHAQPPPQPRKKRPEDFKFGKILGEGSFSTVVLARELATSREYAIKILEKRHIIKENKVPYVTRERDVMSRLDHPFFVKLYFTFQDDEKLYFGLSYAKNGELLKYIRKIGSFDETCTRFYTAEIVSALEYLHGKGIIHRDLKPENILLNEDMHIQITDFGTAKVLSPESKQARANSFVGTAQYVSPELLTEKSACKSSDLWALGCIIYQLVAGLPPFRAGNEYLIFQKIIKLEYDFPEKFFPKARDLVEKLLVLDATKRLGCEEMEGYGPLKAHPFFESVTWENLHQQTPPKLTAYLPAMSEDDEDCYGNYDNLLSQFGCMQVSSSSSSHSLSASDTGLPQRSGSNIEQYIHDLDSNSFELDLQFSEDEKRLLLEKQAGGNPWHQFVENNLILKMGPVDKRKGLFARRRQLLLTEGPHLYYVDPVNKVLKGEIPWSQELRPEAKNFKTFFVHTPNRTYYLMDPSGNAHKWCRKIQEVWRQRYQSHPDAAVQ
The experiment in a line: PDK-1 kinase activity (Upstate kit, SGK-coupled, cell-free). Type of assay: biochemical.
Experimental: PDK-1 kinase activity This in vitro assay was performed using a PDK-1 kinase assay kit (Upstate, Lake Placid, N.Y.) according to the vendor's instructions. This cell-free assay is based on the ability of recombinant PDK-1, in the presence of DMSO vehicle or the test agent, to activate its downstream kinase serum- and glucocorticoid-regulated kinase (SGK.) which, in turn, phosphorylates the Akt/SGK-specific peptide substrate RPRAATF with [γ-^32]-ATP. […] The reported values represent the means of two independent determinations.

Assay [2] deals with PC-3 cells. The experiment in a line: Cell viability analysis (MTT) in PC-3 cells. Particulars: Homo sapiens; inducing apoptotic death in PC-3 cells / PC-3 cell viability; read-out: IC50 PC-3. Type of assay: cell-based, human. The procedure:
Cell Culture PC-3 (p53−/−) human androgen-nonresponsive prostate cancer cells were purchased from the American […] (Manassas, Va.). Cells were cultured in RPMI 1640 medium (Gibco, Grand Island, N.Y.) supplemented with 10% fetal bovine serum (FBS; Gibco) at 37° C. in a humidified incubator containing 5% CO2.
Cell viability analysis The effect of 4-[5-(4-methylphenyl)-3-(trifluoromethyl)-1H-pyrazol-1-yl]benzenesulfonamide and its derivatives on PC-3 cell viability was assessed by using the MTT {[3-(4,5-dimethylthiazol-2-yl)-2,5-diphenyl-2H-tetrazolium bromide]} assay in six replicates. Cells were grown in 10% FBS-supplemented RPMI 1640 medium in 96-well, flat bottomed plates for 24 h, and were exposed to various concentrations of compounds 1-36 dissolved in DMSO (final concentration ≦0.1%) in 1% serum-containing RPMI 1640 medium for different time intervals. Controls received DMSO vehicle at a concentration equal to that in drug-treated cells. The medium was removed, replaced by 200 μl of 0.5 mg/ml of MTT in 10% FBS-containing RPMI-1640 medium, and cells were incubated in the CO2 incubator at 37° C. for 2 h. Supernatants were removed from the wells, and the reduced MTT dye was solubilized in 200 μL/well DMSO. Absorbance at 570 nm was determined on a plate reader.

Setting [3] is: inhibiting recombinant PDK-1 kinase activity, read-out: IC50 PDK-1.

Regarding `Cc1ccc(-c2cc(C(F)(F)F)nn2-c2ccc(S(N)(=O)=O)cc2)cc1` [Comparative Compound, 4-[5-(4-methylphenyl)-3-(trifluoromethyl)-1H-pyrazol-1-yl]benzenesulfonamide, reference compound], the IC50 was determined as 48 µM in assay [1] (setting [3]) and 30 µM in assay [2]. For the compound `NS(=O)(=O)c1ccc(-n2nc(C(F)(F)F)cc2-c2ccc(CCBr)cc2)cc1` [Compound 37, 4-[5-(4-(2-bromoethyl)phenyl)-3-(trifluoromethyl)-1H-pyrazol-1-yl]benzenesulfonamide], the IC50 in assay [1] came to 42 µM; in assay [2] it was 18 µM.

Consider `NS(=O)(=O)c1ccc(-n2nc(C(F)(F)F)cc2-c2ccc(CCCBr)cc2)cc1` [Compound 38, 4-[5-(4-(3-bromopropyl)phenyl)-3-(trifluoromethyl)-1H-pyrazol-1-yl]benzenesulfonamide], for which the IC50 came out at 38 µM in assay [1] and 17 µM in assay [2].

For `[N-]=[N+]=NCCc1ccc(-c2cc(C(F)(F)F)nn2-c2ccc(S(N)(=O)=O)cc2)cc1` [Compound 39, 4-[5-(4-(2-azidoethyl)phenyl)-3-(trifluoromethyl)-1H-pyrazol-1-yl]benzenesulfonamide], the IC50 in assay [1] came out at 32 µM; in assay [2], 17 µM. Turning to `[N-]=[N+]=NCCCc1ccc(-c2cc(C(F)(F)F)nn2-c2ccc(S(N)(=O)=O)cc2)cc1` [Compound 40, 4-[5-(4-(3-azidopropyl)phenyl)-3-(trifluoromethyl)-1H-pyrazol-1-yl]benzenesulfonamide], the IC50 in assay [1] is 34 µM; in assay [2], 18 µM. For `CCCCc1ccc(-c2cc(C(F)(F)F)nn2-c2ccc(S(N)(=O)=O)cc2)cc1` [Compound 41, 4-[5-(4-butylphenyl)-3-(trifluoromethyl)-1H-pyrazol-1-yl]benzenesulfonamide], in that order: 20 µM and 9 µM. For `CC(C)(C)c1ccc(-c2cc(C(F)(F)F)nn2-c2ccc(S(N)(=O)=O)cc2)cc1` [Compound 42, 4-[5-(4-t-butylphenyl)-3-(trifluoromethyl)-1H-pyrazol-1-yl]benzenesulfonamide], in that order: 34 µM and 18 µM.

For the compound `NS(=O)(=O)c1ccc(-n2nc(C(F)(F)F)cc2-c2c[nH]c3ccccc23)cc1` [Compound 44, 4-[5-(3-indolyl)-3(trifluoromethyl)-1H-pyrazol-1-yl]benzenesulfonamide], the IC50 in assay [1] stood at 65 µM; in assay [2], 31 µM.

Take `NS(=O)(=O)c1ccc(-n2nc(C(F)(F)F)cc2-c2ccc(-c3ccccc3)cc2)cc1` [Compound 45]: the IC50 in assay [1] (setting [3]) worked out at 21 µM; in assay [2] it was 11 µM. For the compound `NS(=O)(=O)c1ccc(-n2nc(C(F)(F)F)cc2-c2ccc(-c3ccc(Cl)cc3)cc2)cc1` [Compound 46, 4-[5-(4′-chloro[1,1′-biphenyl]-4-yl)-3-(trifluoromethyl)-1H-pyrazol-1-yl]benzenesulfonamide], the IC50 in assay [1] was found to be 22 µM; in assay [2], 9 µM. For `NS(=O)(=O)c1ccc(-n2nc(C(F)(F)F)cc2-c2ccc(-c3cc(Cl)cc(Cl)c3)cc2)cc1` [Compound 47, 4-[5-(3′,5′-dichloro[1,1′-biphenyl]-4-yl)-3-(trifluoromethyl)-1H-pyrazol-1-yl]benzenesulfonamide], in that order: 18 µM and 10 µM. As to `NS(=O)(=O)c1ccc(-n2nc(C(F)(F)F)cc2-c2ccc(-c3cccc(Cl)c3Cl)cc2)cc1` [Compound 48, 4-[5-(2′,3′-dichloro[1,1′-biphenyl]-4-yl)-3-(trifluoromethyl)-1H-pyrazol-1-yl]benzenesulfonamide], the IC50 in assay [1] (setting [3]) came out at 23 µM; in assay [2], 10 µM. `NS(=O)(=O)c1ccc(-n2nc(C(F)(F)F)cc2-c2ccc(-c3cc(Cl)c(Cl)cc3Cl)cc2)cc1` [Compound 49, 4-[5-(2′,4′,5′-trichloro[1,1′-biphenyl]-4-yl)-3(trifluoromethyl)-1H-pyrazol-1-yl]benzenesulfonamide]: the IC50 in assay [1] came to 9 µM; in assay [2], 5 µM. As for `Cc1ccc(-c2ccc(-c3cc(C(F)(F)F)nn3-c3ccc(S(N)(=O)=O)cc3)cc2)cc1` [Compound 50, 4-[5-(4′-methyl[1,1′-biphenyl]4-yl)-3-(trifluoromethyl)-1H-1-yl]benzenesulfonamide], in assay [2], the IC50 came out at 8 µM. Turning to `NS(=O)(=O)c1ccc(-n2nc(C(F)(F)F)cc2-c2ccc(-c3ccc(CBr)cc3)cc2)cc1` [Compound 52, 4-[5-(4′-bromomethyl[1,1′-biphenyl]-4-yl)-3-(trifluoromethyl)-1H-1-yl]benzenesulfonamide], the IC50 amounted to 20 µM in assay [1] (setting [3]) and 11 µM in assay [2]. Consider `Cc1cc(C)cc(-c2ccc(-c3cc(C(F)(F)F)nn3-c3ccc(S(N)(=O)=O)cc3)cc2)c1` [Compound 53, 4-[5-(3′,5′-dimethyl[1,1;-biphenyl]-4-yl)-3-(trifluoromethyl)-1H-1-yl]benzenesulfonamide], for which the IC50 in assay [1] (setting [3]) was 17 µM. With `CCCCc1ccc(-c2ccc(-c3cc(C(F)(F)F)nn3-c3ccc(S(N)(=O)=O)cc3)cc2)cc1` [Compound 54, 4-[5-(4′-butyl[1,1′-biphenyl]-4-yl)-3-(trifluoromethyl)-1H-1-yl]benzenesulfonamide], the IC50 in assay [1] (setting [3]) is 32 µM; in assay [2] it was 15 µM.

As to `CC(C)(C)c1ccc(-c2ccc(-c3cc(C(F)(F)F)nn3-c3ccc(S(N)(=O)=O)cc3)cc2)cc1` [Compound 55, 4-[5-(4′-tert-buty[1,1′-biphenyl]-4-yl)-3-(trifluoromethyl)-1H-1-yl]benzenesulfonamide], the results for the IC50 in assay [1] (setting [3]) and in assay [2] were 32 µM and 15 µM, respectively. `NS(=O)(=O)c1ccc(-n2nc(C(F)(F)F)cc2-c2ccc(Cc3ccccc3)cc2)cc1` [Compound 56, 4-[5-(4-(phenylmethyl)phenyl)-3-(trifluoromethyl)-1H-1-yl]benzenesulfonamide]: in assay [2], the IC50 stood at 8 µM. For the compound `NS(=O)(=O)c1ccc(-n2nc(C(F)(F)F)cc2-c2ccc3c(c2)Cc2ccccc2-3)cc1` [Compound 57, 4-[5-(9H-fluoren-2-yl)-3-(trifluoromethyl)-1H-1-yl]benzenesulfonamide], the IC50 in assay [1] (setting [3]) came out at 16 µM.

On to `NS(=O)(=O)c1ccc(-n2nc(C(F)(F)F)cc2-c2c3ccccc3cc3ccccc23)cc1` [Compound 58, 4-[5-(9-anthracenyl)-3-(trifluoromethyl)-1H-1-yl]benzenesulfonamide], for which the IC50 is 12 µM in assay [1] (setting [3]) and 7 µM in assay [2].

As to `NS(=O)(=O)c1ccc(-n2nc(C(F)(F)F)cc2-c2cc3ccccc3c3ccccc23)cc1` [Compound 60, 4-[5-(9-phenanthrenyl)-3-(trifluoromethyl)-1H-1-yl]benzenesulfonamide], the IC50 in assay [1] was determined as 42 µM; in assay [2], 23 µM. In the case of `NC(=O)c1ccc(-n2nc(C(F)(F)F)cc2-c2ccc3c(ccc4ccccc43)c2)cc1` [Compound 61, 4-[5-(2-Phenanthracenyl)-3-(trifluoromethyl)-1H-pyrazol-1-yl]-benzenecarboxamide], the IC50 was 12 µM in assay [1] (setting [3]) and 7 µM in assay [2]. For the compound `N#Cc1ccc(-n2nc(C(F)(F)F)cc2-c2ccc3c(ccc4ccccc43)c2)cc1` [Compound 62, 4-[5-(2-Phenanthrenyl)-3-(trifluoromethyl)-1H-pyrazol-1-yl]-benzonitrile], the IC50 worked out at 45 µM in assay [1] (setting [3]) and 30 µM in assay [2]. Take `N=C(NO)c1ccc(-n2nc(C(F)(F)F)cc2-c2ccc3c(ccc4ccccc43)c2)cc1` [Compound 63, 4-[5-(2-Phenanthrenyl)-3-(trifluoromethyl)-1H-pyrazol-1-yl]-N-hydroxybenzamidine]: the figures for the IC50 in assay [1] and in assay [2] were 40 µM and 25 µM, respectively. As for `O/N=C/c1ccc(-n2nc(C(F)(F)F)cc2-c2ccc3c(ccc4ccccc43)c2)cc1` [Compound 65, 4-5[-(2-Phenanthrenyl)-3-(trifluoromethyl)-1H-pyraxol-1-yl]-benzaldehyde oxime], the IC50 in assay [2] turned out to be 14 µM. On the same count and under the same terms, under `NC(Cc1ccc(-n2nc(C(F)(F)F)cc2-c2ccc3c(ccc4ccccc43)c2)cc1)=NO` [Compound 68, 2-{4-[5-(2-Phenanthrenyl)-3-(trifluoromethyl)-1H-pyrazol-1-y]-phenyl}-N-hydroxy-acetamidine] stands 8 µM.

Usually IC50 stands for the concentration that inhibits the measured activity by half.
